Test system: MOLM-13
Details: 72 h
Method in brief: (§1)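 Fifteen myeloid leukaemia cell lines were seeded in RPMI 1640 at a density titrated to the linear growth range. Each line went into 384-well plates with compounds acoustically pre-printed at five tenfold doses from 1 to 10,000 nM, in duplicate, and was incubated for 72 h at 37 °C with 5% CO2. Luminescent ATP viability was normalised to vehicle and to a positive control at 10 µM. The IC50 came from four-parameter log-logistic dose–response fits.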

SMILES | IC50 (cell viability) [µM]
CN(C)C(=N)NC(=N)N [Metformin] | > 10
Cl.OC[C@H]1NC[C@H](O)[C@@H](O)[C@H]1O [Migalastat] | > 10
OCCN1C[C@H](O)[C@@H](O)[C@H](O)[C@H]1CO [Miglitol] | > 10
CCCCCCCCCCCCC/C=C/[C@@H](O)[C@H](CO)N(C)C [N,N-Dimethylsphingosine] | > 10
CCCCCCCNC=O [N-Heptyl-Formamide] | > 10

Test system: NOMO-1
Details: 72 h
Method in brief: as §1

SMILES | IC50 (cell viability) [µM]
O=C(Oc1ccc([N+](=O)[O-])cc1)N1CCC(C(O)(c2ccc3c(c2)OCO3)c2ccc3c(c2)OCO3)CC1 [JZL184] | > 10
O=C1N[C@@H]2[C@@H](O)[C@@H](O)[C@H](O)[C@@H](CO)N2C1=O [Kifunensine] | > 10
CC(C)(CCCCCCCCCCC(C)(C)CC(=O)O)CC(=O)O [MEDICA 16] | > 10
Cc1nnc(-c2ccc(N3CCC(Oc4ccccc4C(F)(F)F)CC3)nn2)s1 [MF-438] | > 10
CC(C)c1ccc2c(c1)c(SC(C)(C)C)c(CC(C)(C)C(=O)O)n2Cc1ccc(Cl)cc1 [MK-886] | > 10
O=C(CCl)N(CCCNC(=O)C(F)(F)F)c1ccc([N+](=O)[O-])cc1 [ML175] | 0.305
CN(C)C(=N)NC(=N)N [Metformin] | > 10
Cl.OC[C@H]1NC[C@H](O)[C@@H](O)[C@H]1O [Migalastat] | > 10
OCCN1C[C@H](O)[C@@H](O)[C@H](O)[C@H]1CO [Miglitol] | > 10
CCCCCCCCCCCCC/C=C/[C@@H](O)[C@H](CO)N(C)C [N,N-Dimethylsphingosine] | > 10
CCCCCCCNC=O [N-Heptyl-Formamide] | > 10

Test system: LAMA-84
Details: 72 h
Method in brief: as §1

SMILES | IC50 (cell viability) [µM]
O=C(Oc1ccc([N+](=O)[O-])cc1)N1CCC(C(O)(c2ccc3c(c2)OCO3)c2ccc3c(c2)OCO3)CC1 [JZL184] | > 10
O=C1N[C@@H]2[C@@H](O)[C@@H](O)[C@H](O)[C@@H](CO)N2C1=O [Kifunensine] | > 10
CC(C)(CCCCCCCCCCC(C)(C)CC(=O)O)CC(=O)O [MEDICA 16] | > 10
Cc1nnc(-c2ccc(N3CCC(Oc4ccccc4C(F)(F)F)CC3)nn2)s1 [MF-438] | > 10
CC(C)c1ccc2c(c1)c(SC(C)(C)C)c(CC(C)(C)C(=O)O)n2Cc1ccc(Cl)cc1 [MK-886] | > 10
O=C(CCl)N(CCCNC(=O)C(F)(F)F)c1ccc([N+](=O)[O-])cc1 [ML175] | 2.54
CN(C)C(=N)NC(=N)N [Metformin] | > 10
Cl.OC[C@H]1NC[C@H](O)[C@@H](O)[C@H]1O [Migalastat] | > 10
OCCN1C[C@H](O)[C@@H](O)[C@H](O)[C@H]1CO [Miglitol] | > 10
CCCCCCCCCCCCC/C=C/[C@@H](O)[C@H](CO)N(C)C [N,N-Dimethylsphingosine] | > 10
CCCCCCCNC=O [N-Heptyl-Formamide] | > 10

Test system: HEL
Details: 72 h
Method in brief: as §1

SMILES | IC50 (cell viability) [µM]
O=C(Oc1ccc([N+](=O)[O-])cc1)N1CCC(C(O)(c2ccc3c(c2)OCO3)c2ccc3c(c2)OCO3)CC1 [JZL184] | > 10
O=C1N[C@@H]2[C@@H](O)[C@@H](O)[C@H](O)[C@@H](CO)N2C1=O [Kifunensine] | > 10
CC(C)(CCCCCCCCCCC(C)(C)CC(=O)O)CC(=O)O [MEDICA 16] | > 10
Cc1nnc(-c2ccc(N3CCC(Oc4ccccc4C(F)(F)F)CC3)nn2)s1 [MF-438] | > 10
CC(C)c1ccc2c(c1)c(SC(C)(C)C)c(CC(C)(C)C(=O)O)n2Cc1ccc(Cl)cc1 [MK-886] | > 10
O=C(CCl)N(CCCNC(=O)C(F)(F)F)c1ccc([N+](=O)[O-])cc1 [ML175] | 0.297
CN(C)C(=N)NC(=N)N [Metformin] | > 10
Cl.OC[C@H]1NC[C@H](O)[C@@H](O)[C@H]1O [Migalastat] | > 10
OCCN1C[C@H](O)[C@@H](O)[C@H](O)[C@H]1CO [Miglitol] | > 10
CCCCCCCCCCCCC/C=C/[C@@H](O)[C@H](CO)N(C)C [N,N-Dimethylsphingosine] | 2.98
CCCCCCCNC=O [N-Heptyl-Formamide] | > 10

Test system: ML-2
Details: 72 h
Method in brief: as §1

SMILES | IC50 (cell viability) [µM]
O=C(Oc1ccc([N+](=O)[O-])cc1)N1CCC(C(O)(c2ccc3c(c2)OCO3)c2ccc3c(c2)OCO3)CC1 [JZL184] | > 10
O=C1N[C@@H]2[C@@H](O)[C@@H](O)[C@H](O)[C@@H](CO)N2C1=O [Kifunensine] | > 10
CC(C)(CCCCCCCCCCC(C)(C)CC(=O)O)CC(=O)O [MEDICA 16] | > 10
Cc1nnc(-c2ccc(N3CCC(Oc4ccccc4C(F)(F)F)CC3)nn2)s1 [MF-438] | > 10
CC(C)c1ccc2c(c1)c(SC(C)(C)C)c(CC(C)(C)C(=O)O)n2Cc1ccc(Cl)cc1 [MK-886] | > 10
O=C(CCl)N(CCCNC(=O)C(F)(F)F)c1ccc([N+](=O)[O-])cc1 [ML175] | 0.288
CN(C)C(=N)NC(=N)N [Metformin] | > 10
Cl.OC[C@H]1NC[C@H](O)[C@@H](O)[C@H]1O [Migalastat] | > 10
OCCN1C[C@H](O)[C@@H](O)[C@H](O)[C@H]1CO [Miglitol] | > 10
CCCCCCCCCCCCC/C=C/[C@@H](O)[C@H](CO)N(C)C [N,N-Dimethylsphingosine] | 3.46
CCCCCCCNC=O [N-Heptyl-Formamide] | > 10

Test system: THP-1
Details: 72 h
Method in brief: as §1

SMILES | IC50 (cell viability) [µM]
O=C(Oc1ccc([N+](=O)[O-])cc1)N1CCC(C(O)(c2ccc3c(c2)OCO3)c2ccc3c(c2)OCO3)CC1 [JZL184] | > 10
O=C1N[C@@H]2[C@@H](O)[C@@H](O)[C@H](O)[C@@H](CO)N2C1=O [Kifunensine] | > 10
CC(C)(CCCCCCCCCCC(C)(C)CC(=O)O)CC(=O)O [MEDICA 16] | > 10
Cc1nnc(-c2ccc(N3CCC(Oc4ccccc4C(F)(F)F)CC3)nn2)s1 [MF-438] | > 10
CC(C)c1ccc2c(c1)c(SC(C)(C)C)c(CC(C)(C)C(=O)O)n2Cc1ccc(Cl)cc1 [MK-886] | > 10
O=C(CCl)N(CCCNC(=O)C(F)(F)F)c1ccc([N+](=O)[O-])cc1 [ML175] | 2.77
CN(C)C(=N)NC(=N)N [Metformin] | > 10
Cl.OC[C@H]1NC[C@H](O)[C@@H](O)[C@H]1O [Migalastat] | > 10
OCCN1C[C@H](O)[C@@H](O)[C@H](O)[C@H]1CO [Miglitol] | > 10
CCCCCCCCCCCCC/C=C/[C@@H](O)[C@H](CO)N(C)C [N,N-Dimethylsphingosine] | > 10
CCCCCCCNC=O [N-Heptyl-Formamide] | > 10

Test system: BV-173
Details: 72 h
Method in brief: as §1

SMILES | IC50 (cell viability) [µM]
O=C(Oc1ccc([N+](=O)[O-])cc1)N1CCC(C(O)(c2ccc3c(c2)OCO3)c2ccc3c(c2)OCO3)CC1 [JZL184] | > 10
O=C1N[C@@H]2[C@@H](O)[C@@H](O)[C@H](O)[C@@H](CO)N2C1=O [Kifunensine] | > 10
CC(C)(CCCCCCCCCCC(C)(C)CC(=O)O)CC(=O)O [MEDICA 16] | > 10
Cc1nnc(-c2ccc(N3CCC(Oc4ccccc4C(F)(F)F)CC3)nn2)s1 [MF-438] | > 10
CC(C)c1ccc2c(c1)c(SC(C)(C)C)c(CC(C)(C)C(=O)O)n2Cc1ccc(Cl)cc1 [MK-886] | > 10
